Values belong to the molecule of their own block, whether it stands above or below them.
Columns and labels:
Format in all cases: physicochemical
pH of 1 wt % in water = test: pH of 1 wt % in water
Experimental: Additionally the pH was measured as 1 wt % D,L-alanine diacetonitrile in water and this pH was compared to the pH of 1 wt % […].

[1] = Stability (hydrolysis) of D,L-alanine diacetonitrile in water, aqueous layers analyzed by NMR; conditions: demi-water, closed bottles, overnight at various temperatures
Experimental: (§1) The solubility of D,L-alanine diacetonitrile was determined at various temperatures to get a clear understanding of the solubility and stability of D,L-alanine diacetonitrile. The D,L-alanine diacetonitrile crystals obtained in Example 1 were added to demi-water and the samples in well-closed bottles were placed in ovens/refrigerators at various temperatures overnight.

[2] = Solubility of D,L-alanine diacetonitrile crystals in demi-water at various temperatures; conditions: overnight
Experimental: as §1

pH (1% in water) (pH of 1 wt % in water): pH = 3.3.
Molecule: CC(C(=O)[O-])N(CC#N)CC#N.[Na+] (racemic) [D,L-alanine diacetonitrile-Na, sodium salt of D,L-alanine diacetonitrile]

Molecule: D,L-alanine diacetonitrile
Hydrolysis of D,L-alanine diacetonitrile in aqueous layer (NMR) [1]: no or very little hydrolysis took place | Solubility, wt % D,L-alanine diacetonitrile ([2]; 0° C.): 6 wt % | Solubility, wt % D,L-alanine diacetonitrile ([2]; 5° C.): 7.9 wt % | Solubility, wt % D,L-alanine diacetonitrile ([2]; 20° C.): 40.7 wt % | Solubility, wt % D,L-alanine diacetonitrile ([2]; 30° C.): 75 wt % | Solubility, wt % D,L-alanine diacetonitrile ([2]; 40° C.): 82.5 wt % | Solubility, wt % D,L-alanine diacetonitrile ([2]; 50° C.): 95 wt % | pH (1% in water) (pH of 1 wt % in water): pH = 2.2
